Calls of active or inactive are those of the source. No cut-off for these calls is given here.
Experiments:
[1] = target: T1, Protein cereblon/Androgen receptor (Homo sapiens, UniProt P10275+Q96SW2); experiment: PROTAC activity at CRBN/AR in human 22Rv1 cells assessed as induction of AR degradation at 0.01 uM incubated for 24 hrs by Western blot analysis relative to control; format: cell-based
Target sequence in this assay (P10275 whole entry, looked up, canonical isoform): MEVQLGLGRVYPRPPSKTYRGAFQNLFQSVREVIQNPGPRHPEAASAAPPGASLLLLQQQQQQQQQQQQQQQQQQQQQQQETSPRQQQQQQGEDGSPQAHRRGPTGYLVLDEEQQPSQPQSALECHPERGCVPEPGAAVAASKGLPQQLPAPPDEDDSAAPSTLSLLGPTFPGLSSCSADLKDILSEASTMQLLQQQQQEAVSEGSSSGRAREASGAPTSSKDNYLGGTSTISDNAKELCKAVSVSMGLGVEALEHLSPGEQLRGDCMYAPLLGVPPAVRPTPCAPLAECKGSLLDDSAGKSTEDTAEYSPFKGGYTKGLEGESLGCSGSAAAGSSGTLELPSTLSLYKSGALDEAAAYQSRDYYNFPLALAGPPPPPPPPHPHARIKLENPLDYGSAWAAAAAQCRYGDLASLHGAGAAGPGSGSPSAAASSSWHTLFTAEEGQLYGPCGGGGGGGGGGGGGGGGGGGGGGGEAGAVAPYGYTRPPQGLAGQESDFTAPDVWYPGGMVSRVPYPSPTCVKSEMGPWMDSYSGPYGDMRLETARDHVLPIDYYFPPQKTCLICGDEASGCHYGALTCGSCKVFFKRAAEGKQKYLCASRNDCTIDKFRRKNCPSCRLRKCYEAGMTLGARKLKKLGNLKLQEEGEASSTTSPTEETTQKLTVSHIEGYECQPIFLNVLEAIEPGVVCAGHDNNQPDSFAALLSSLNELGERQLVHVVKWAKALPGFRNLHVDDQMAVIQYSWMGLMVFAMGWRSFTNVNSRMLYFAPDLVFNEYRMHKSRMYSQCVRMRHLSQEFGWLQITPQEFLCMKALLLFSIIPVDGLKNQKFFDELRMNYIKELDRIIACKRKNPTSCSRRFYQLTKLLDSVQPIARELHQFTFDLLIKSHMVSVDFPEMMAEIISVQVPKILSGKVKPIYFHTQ
Target sequence in this assay (Q96SW2 whole entry, looked up, canonical isoform): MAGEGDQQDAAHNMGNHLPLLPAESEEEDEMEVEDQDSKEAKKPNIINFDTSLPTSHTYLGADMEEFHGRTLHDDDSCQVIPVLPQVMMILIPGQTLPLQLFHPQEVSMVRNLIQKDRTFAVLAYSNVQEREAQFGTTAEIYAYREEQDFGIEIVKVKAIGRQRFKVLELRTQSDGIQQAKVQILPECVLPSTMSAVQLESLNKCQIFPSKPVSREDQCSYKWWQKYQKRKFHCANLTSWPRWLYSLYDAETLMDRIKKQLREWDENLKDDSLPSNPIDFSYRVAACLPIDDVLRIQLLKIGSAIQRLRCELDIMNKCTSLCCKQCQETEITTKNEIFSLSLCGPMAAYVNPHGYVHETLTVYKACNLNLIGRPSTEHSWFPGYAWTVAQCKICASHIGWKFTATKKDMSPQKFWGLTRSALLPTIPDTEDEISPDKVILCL

[2] = test system: Protein cereblon/Androgen receptor (Homo sapiens), P10275+Q96SW2 [UNDEFINED MUTATION]; experiment: PROTAC activity at CRBN/Androgen receptor splice variant 7 in human 22Rv1 cells assessed as induction of AR-V7 degradation at 0.01 uM incubated for 24 hrs by Western blot analysis relative to control; format: cell-based
Protein cereblon/Androgen receptor (Homo sapiens), P10275+Q96SW2 [UNDEFINED MUTATION], sequence (P10275 whole entry, looked up, change not shown, canonical isoform): as the sequence (P10275 whole entry, looked up, canonical isoform) above
Protein cereblon/Androgen receptor (Homo sapiens), P10275+Q96SW2 [UNDEFINED MUTATION], sequence (Q96SW2 whole entry, looked up, change not shown, canonical isoform): as the sequence (Q96SW2 whole entry, looked up, canonical isoform) above

[3] = target: T1, Protein cereblon/Androgen receptor; experiment: PROTAC activity at CRBN/AR in human VCaP cells assessed as induction of AR degradation at 0.01 uM incubated for 24 hrs by Western blot analysis relative to control; format: cell-based
Target sequence in this assay (P10275 whole entry, looked up, canonical isoform): as the sequence (P10275 whole entry, looked up, canonical isoform) above
Target sequence in this assay (Q96SW2 whole entry, looked up, canonical isoform): as the sequence (Q96SW2 whole entry, looked up, canonical isoform) above

[4] = target: T2, Protein cereblon/Eukaryotic peptide chain release factor GTP-binding subunit ERF3A (Homo sapiens, UniProt Q96SW2+P15170); experiment: Molecular glue activity at CRBN/GSPT1 in human 22Rv1 cells assessed as induction of GSPT1 degradation at 0.1 uM incubated for 24 hrs by Western blot analysis relative to control; format: cell-based
T2 sequence (P15170 whole entry, looked up): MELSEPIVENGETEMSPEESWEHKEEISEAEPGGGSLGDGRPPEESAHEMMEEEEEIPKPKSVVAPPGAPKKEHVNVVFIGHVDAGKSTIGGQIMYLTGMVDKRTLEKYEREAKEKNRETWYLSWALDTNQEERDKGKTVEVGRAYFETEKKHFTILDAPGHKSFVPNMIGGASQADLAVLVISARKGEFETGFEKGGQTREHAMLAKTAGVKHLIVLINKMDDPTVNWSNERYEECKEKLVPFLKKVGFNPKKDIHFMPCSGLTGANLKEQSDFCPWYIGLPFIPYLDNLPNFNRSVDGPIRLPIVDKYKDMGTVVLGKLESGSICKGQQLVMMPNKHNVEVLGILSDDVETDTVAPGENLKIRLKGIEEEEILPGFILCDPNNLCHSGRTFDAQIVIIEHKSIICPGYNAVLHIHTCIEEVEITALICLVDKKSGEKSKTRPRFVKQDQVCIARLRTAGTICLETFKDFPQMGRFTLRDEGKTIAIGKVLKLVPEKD
T2 sequence (Q96SW2 whole entry, looked up): as the sequence (Q96SW2 whole entry, looked up, canonical isoform) above

[5] = target: T1, Protein cereblon/Androgen receptor; experiment: PROTAC activity at CRBN/AR in human 22Rv1 cells assessed as induction of AR degradation at 20 nM incubated for 18 hrs by Western blot analysis (reference value: 0 %); format: cell-based
Target sequence in this assay (P10275 whole entry, looked up, canonical isoform): as the sequence (P10275 whole entry, looked up, canonical isoform) above
Target sequence in this assay (Q96SW2 whole entry, looked up, canonical isoform): as the sequence (Q96SW2 whole entry, looked up, canonical isoform) above

[6] = test system: Protein cereblon/Androgen receptor (Homo sapiens), P10275+Q96SW2 [UNDEFINED MUTATION]; experiment: PROTAC activity at CRBN/Androgen receptor splice variant 7 in human 22Rv1 cells assessed as induction of AR-V7 degradation at 20 nM incubated for 2 hrs by Western blot analysis (reference value: 0%); format: cell-based
[7] = target: T2, Protein cereblon/Eukaryotic peptide chain release factor GTP-binding subunit ERF3A; experiment: Molecular glue activity at CRBN/GSPT1 in human 22Rv1 cells assessed as induction of GSPT1 degradation at 20 nM incubated for 24 hrs by Western blot analysis (reference value: 0 %); format: cell-based
[8] = target: T2, Protein cereblon/Eukaryotic peptide chain release factor GTP-binding subunit ERF3A; experiment: Molecular glue activity at CRBN/GSPT1 in human 22Rv1 cells assessed as induction of GSPT1 degradation at 20 nM incubated for 36 hrs by Western blot analysis (reference value: 0 %); format: cell-based
[9] = test system: Protein cereblon/Androgen receptor (Homo sapiens), P10275+Q96SW2 [UNDEFINED MUTATION]; experiment: (§1) PROTAC activity at CRBN/Androgen receptor splice variant 7 in human 22Rv1 cells assessed as induction of AR-V7 degradation incubated for 24 hrs by Western blot analysis; format: cell-based
[10] = target: T1, Protein cereblon/Androgen receptor; experiment: as §1; format: cell-based
Target sequence in this assay (P10275 whole entry, looked up, change not shown, canonical isoform): as the sequence (P10275 whole entry, looked up, canonical isoform) above
Target sequence in this assay (Q96SW2 whole entry, looked up, change not shown, canonical isoform): as the sequence (Q96SW2 whole entry, looked up, canonical isoform) above

[11] = target: T1, Protein cereblon/Androgen receptor; experiment: PROTAC activity at CRBN/AR in human LNCaP cells assessed as induction of AR degradation incubated for 24 hrs by Western blot analysis; format: cell-based
[12] = test system: Protein cereblon/Androgen receptor (Homo sapiens), P10275+Q96SW2 [UNDEFINED MUTATION]; experiment: PROTAC activity at CRBN/Androgen receptor splice variant 7 in human VCaP cells assessed as induction of AR-V7 degradation at 20 nM by Western blot analysis; format: cell-based; settings: time 1-36 hrs
[13] = target: T2, Protein cereblon/Eukaryotic peptide chain release factor GTP-binding subunit ERF3A; experiment: Molecular glue activity at CRBN/GSPT1 in human VCaP cells assessed as induction of GSPT1 degradation at 20 nM by Western blot analysis; format: cell-based; settings: time 1-36 hrs
[14] = test system: Protein cereblon/Androgen receptor (Homo sapiens), P10275+Q96SW2 [UNDEFINED MUTATION]; experiment: PROTAC activity at CRBN/Androgen receptor splice variant 7 in human VCaP cells assessed as induction of AR-V7 degradation by measuring maximal efficacy incubated for 24 hrs by Western blot analysis relative to control; format: cell-based
CWR22R [15] = experiment: Effect on androgen receptor mRNA expression in human 22Rv1 cells at 1 to 10 nM incubated for 24 hrs by RT-PCR analysis; format: functional, cell-based; settings: dose 1-10 nM
[16] = target: T1, Protein cereblon/Androgen receptor; experiment: PROTAC activity at CRBN/AR in human 22Rv1 cells assessed as induction of AR degradation at 50 nM preincubated with MLN4924 followed by compound addition and measured after 12 hrs by Western blot analysis; format: cell-based
Target sequence in this assay (P10275 whole entry, looked up, canonical isoform): as the sequence (P10275 whole entry, looked up, canonical isoform) above
Target sequence in this assay (Q96SW2 whole entry, looked up, canonical isoform): as the sequence (Q96SW2 whole entry, looked up, canonical isoform) above

[17] = target: T2, Protein cereblon/Eukaryotic peptide chain release factor GTP-binding subunit ERF3A; experiment: Molecular glue activity at CRBN/GSPT1 in human 22Rv1 cells assessed as induction of GSPT1 degradation at 50 nM preincubated with MG132 followed by compound addition and measured after 12 hrs by Western blot analysis; format: cell-based
[18] = test system: Protein cereblon/Androgen receptor (Homo sapiens), P10275+Q96SW2 [UNDEFINED MUTATION]; experiment: PROTAC activity at CRBN/Androgen receptor splice variant 7 in human VCaP cells assessed as induction of AR-V7 degradation at 50 nM preincubated with MLN4924 followed by compound addition and measured after 12 hrs by Western blot analysis; format: cell-based
[19] = target: T2, Protein cereblon/Eukaryotic peptide chain release factor GTP-binding subunit ERF3A; experiment: Molecular glue activity at CRBN/GSPT1 in human VCaP cells assessed as induction of GSPT1 degradation at 50 nM preincubated with MG132 followed by compound addition and measured after 12 hrs by Western blot analysis; format: cell-based
[20] = test system: Protein cereblon/Androgen receptor (Homo sapiens), P10275+Q96SW2 [UNDEFINED MUTATION]; experiment: Induction of AR-V7 degradation in human 22Rv1 cells transfected with CRBN siRNA at 30 nM incubated for 24 hrs by Western blot analysis; format: cell-based
[21] = target: T1, Protein cereblon/Androgen receptor; experiment: PROTAC activity at CRBN/AR in human 22Rv1 cells assessed as increase in androgen receptor polyubiquitination at 30 nM preincubated with compound for 12 hrs followed by MG132 addition and measured after 12 hrs by immunoprecipitation based Western blot analysis; format: cell-based; settings: time 24.0 hrs
Target sequence in this assay (P10275 whole entry, looked up, canonical isoform): as the sequence (P10275 whole entry, looked up, canonical isoform) above
Target sequence in this assay (Q96SW2 whole entry, looked up, canonical isoform): as the sequence (Q96SW2 whole entry, looked up, canonical isoform) above

LNCaP = experiment: Antiproliferative activity against AR-dependent human LNCaP cells assessed as cell growth inhibition incubated for 72 hrs by Celltiter-lumi luminescent cell viability assay; format: functional, cell-based
DU-145 = experiment: Antiproliferative activity against AR-independent human DU-145 cells assessed as cell growth inhibition incubated for 72 hrs by Celltiter-lumi luminescent cell viability assay; format: functional, cell-based; settings: DU-145, 72 h
CWR22R [22] = experiment: Downregulation of MT-ATP8 gene expression in human 22Rv1 cells at 3 nM incubated for 24 hrs by Volcano plot analysis; format: functional, cell-based
CWR22R [23] = experiment: Downregulation of CCNB1IP1 gene expression in human 22Rv1 cells at 3 nM incubated for 24 hrs by Volcano plot analysis; format: functional, cell-based
CWR22R [24] = experiment: Downregulation of RCC2 gene expression in human 22Rv1 cells at 3 nM incubated for 24 hrs by Volcano plot analysis; format: functional, cell-based
[25] = target: T1, Protein cereblon/Androgen receptor; experiment: PROTAC activity at CRBN/AR in human LNCaP cells assessed as decrease in FKBP5 mRNA level at 10 to 100 nM incubated for 24 hrs by qRT-PCR analysis; format: cell-based; settings: dose 10-100 nM
Target sequence in this assay (P10275 whole entry, looked up, canonical isoform): as the sequence (P10275 whole entry, looked up, canonical isoform) above
Target sequence in this assay (Q96SW2 whole entry, looked up, canonical isoform): as the sequence (Q96SW2 whole entry, looked up, canonical isoform) above

[26] = target: T1, Protein cereblon/Androgen receptor; experiment: PROTAC activity at CRBN/AR in human 22Rv1 cells assessed as decrease in PSA protein level incubated for 24 hrs by Western blot analysis; format: cell-based; settings: dose 1-10 nM
[27] = target: T1, Protein cereblon/Androgen receptor; experiment: PROTAC activity at CRBN/AR in human LNCaP cells assessed as decrease in FKBP51 protein level incubated for 24 hrs by Western blot analysis; format: cell-based; settings: dose 1-100 nM
CWR22R [28] = experiment: Cell cycle arrest in human 22Rv1 cells assessed as accumulation of cells at G1 phase at 3 nM incubated for 24 hrs by flow cytometric analysis (reference value: 49.7 %); format: functional
[29] = test system: Protein cereblon/Androgen receptor (Homo sapiens), P10275+Q96SW2 [UNDEFINED MUTATION]; experiment: PROTAC activity at CRBN/Androgen receptor splice variant 7 in human Enzalutamide-resistant LNCaP cells assessed as induction of AR-V7 degradation at 1 to 300 nM by Western blot analysis; format: cell-based; settings: dose 1-300 nM
[30] = Clearance in male ICR mouse at 2 mg/kg, iv by LC-MS/MS analysis; format: ADME, organism-based; settings: in vivo
[31] = target: T2, Protein cereblon/Eukaryotic peptide chain release factor GTP-binding subunit ERF3A; experiment: In vivo molecular glue activity at CRBN/GSPT1 in male NOD SCID mouse model xenografted with human LNCaP cells assessed as reduction in GSPT1 level in tumor at 20 mg/kg, po administered daily for 26 days by Western blot analysis; format: functional, organism-based; settings: time 26.0 day

**Q.** Which Activity [1] does the source give for `COc1ccc(C(C)(C)c2cc(Cl)c(OCC3CCN(C(=O)CCCCCNc4ccc5c(c4)C(=O)N(C4CCC(=O)NC4=O)C5=O)CC3)c(C#N)c2)cc1` (centres undefined) here?
**A.** The Activity was 75.2%.

**Q.** What about the Activity [2] of the same molecule?
**A.** The Activity was 65.7%.

**Q.** What about the Activity [3] of the same molecule?
**A.** Its Activity is 89.4%.

**Q.** And the Activity [4]?
**A.** Its Activity is 93.4%.

**Q.** What about the Activity [5] of the same molecule?
**A.** The Activity was 84.1%.

**Q.** And the Activity [6]?
**A.** The Activity was 21.8%.

**Q.** What about the Activity [7] of the same molecule?
**A.** Its Activity is 98.1%.

**Q.** And the Activity [8]?
**A.** The Activity was 98.5%.

**Q.** And the Activity [9]?
**A.** The Activity was “Dose-dependent-effect”.

**Q.** And the DC50 [10]?
**A.** The DC50 was 3 nM.

**Q.** What about the Activity [11] of the same molecule?
**A.** The Activity was “Dose-dependent-effect”.

**Q.** And the DC50 [11]?
**A.** Its DC50 is 15.6 nM.

**Q.** What about the Activity [12] of the same molecule?
**A.** The Activity was “Time-dependent-effect”.

**Q.** And the Activity [13]?
**A.** The Activity was “Time-dependent-effect”.

**Q.** And the Emax [14]?
**A.** The Emax was 77.9%.

**Q.** And the Activity (CWR22R [15])?
**A.** The Activity was “Minimal_effect”.

**Q.** What about the Activity [16] of the same molecule?
**A.** Its Activity is “inactive”.

**Q.** What about the Activity [17] of the same molecule?
**A.** Its Activity is “inactive”.

**Q.** And the Activity [18]?
**A.** The Activity was “inactive”.

**Q.** And the Activity [19]?
**A.** The Activity was “inactive”.

**Q.** And the Activity [20]?
**A.** Its Activity is “inactive”.

**Q.** And the Activity [21]?
**A.** The Activity was “Active”.

**Q.** What about the IC50 (LNCaP) of the same molecule?
**A.** The IC50 was 2.8 nM.

**Q.** What about the IC50 (DU-145) of the same molecule?
**A.** The IC50 was 882 nM.

**Q.** And the Activity (CWR22R [22])?
**A.** Its Activity is “Active”.

**Q.** And the Activity (CWR22R [23])?
**A.** Its Activity is “Active”.

**Q.** And the Activity (CWR22R [24])?
**A.** The Activity was “Active”.

**Q.** And the Activity [25]?
**A.** Its Activity is “Active”.

**Q.** And the Activity [26]?
**A.** The Activity was “Dose-dependent-effect”.

**Q.** And the Activity [27]?
**A.** Its Activity is “Dose-dependent-effect”.

**Q.** What about the Activity (CWR22R [28]) of the same molecule?
**A.** The Activity was 55.6%.

**Q.** And the Activity [29]?
**A.** The Activity was “Active”.

**Q.** What about the clearance [30] of the same molecule?
**A.** The clearance was 18 mL/min/kg.

**Q.** And the Activity [31]?
**A.** Its Activity is “Active”.

From ChEMBL document CHEMBL6177998, “Rational Design of Dual Degraders by Incorporating Molecular Glue Structural Features into PROTAC Degraders” (J Med Chem, 2025)
